Measured values as given in US5348960A, “Imidazo[4,5-b]quinolinyl oxy alkyl tetrazolyl piperidine derivatives” (Bristol-Myers Squibb Company, priority 1993, dated 1994).
≈ marks a conversion by molar mass, not a printed value. Counter-ions that a name gives are not always drawn.

Experiments:
[1] = test system: ADP-induced aggregation of human blood platelets; assay: cells; assay type: cell-based; conditions: Platelet, read-out: IC50 vs ADP in human PRP
Procedure: The aggregometer method of Born, C. V. R., J. Physiol., (London), 162, 67-68, (1962) as modified by Mustard, J. F., et al., J. Lab. Clin. Med., 64, 548-599, (1964) was used to assess the in vitro activity of the various compounds as to the inhibition of adenosine diphosphate (ADP) and collagen-induced platelet aggregation. The human volunteer donor's arm is cleansed with 70% ethyl alcohol. A sterile 20 ml syringe and needle are used to withdraw 20 ml of blood. The blood is immediately added to a test tube containing 3.8% sodium citrate to prevent clotting (1 part citrate to 9 parts blood).
Platelet rich plasma (PRP) was separated by centrifugation for 10 minutes at 1000 rpm (140xg) from citrated (3.8%) human blood. All glassware used for preparation of PRP is silicon treated. ADP in final concentration of 0.5 μg/mL or 0.05 mL of a collagen suspension prepared according to the method described by Evans, G., et al., J. Exp. Med., 128, 877-894, (1968) was used to induce aggregation. The various compounds tested were dissolved in dimethylsulfoxide (DMSO) so that 5 μl added to the platelet rich plasma would yield the desired test concentration. Vehicle control trials were done and compared with aggregation induced in platelet rich plasma containing various concentrations of the test compounds. Dose response curves were obtained and Inhibitor Concentration (IC50) values calculated.
The target compounds were evaluated as inhibitors of ADP-induced aggregation of human blood platelets in platelet-rich-plasma (PRP) in vitro. The test compounds were incubated at about 37° C. in PRP for about 3 minutes prior to the addition of sufficient ADP to provide a final ADP concentration of 5.86 μM.

[2] = aqueous solubility; assay type: physicochemical; conditions: water, dihydrochloride salts

Row | SMILES | IC50 [1] [µg/mL] | solubility [2] [µg/mL]
1 | CCOC(=O)N1CCC(n2nnnc2CCCOc2ccc3nc4[nH]c(=O)[nH]c4cc3c2)CC1 [Cmpd 10a, Ethyl 4-[5-[3-(2,3-dihydro-2-oxo-1H-imidazo[4,5-b]quinolin-7-yloxy)propyl]-1H-tetrazol-1-yl]-1-piperidinecarboxylate] | 0.2 (≈ 0.429 µM) | 
2 | CCOC(=O)N1CCC(n2nnnc2CCCCOc2ccc3nc4[nH]c(=O)[nH]c4cc3c2)CC1 [Cmpd 10b] | 0.05 (≈ 0.104 µM) | 
3 | Oc1nc2cc3cc(OCCCc4nnnn4C4CCNCC4)ccc3[nH]c-2n1 [Cmpd 12a, [5-[3-(2,3-Dihydro-2-oxo-1H-imidazo[4,5-b]quinolin-7-yloxy)propyl]-1H-tetrazol-1-yl]piperidine dihydrochloride] | 5.4 | > 20000
4 | Oc1nc2cc3cc(OCCCc4nnnn4C4CCN(Cc5ccccc5)CC4)ccc3[nH]c-2n1 [Cmpd 12b, [5-[3-(2,3-Dihydro-2-oxo-1H-imidazo [4,5-b]quinolin-7-yloxy)propyl]-1H-tetrazol-l-yl]-1-(phenylmethyl) piperidine dihydrochloride] | 0.022 | > 10000
5 | Oc1nc2cc3cc(OCCCc4nnnn4C4CCN(Cc5ccc(F)cc5)CC4)ccc3[nH]c-2n1 [Cmpd 12c, [5-[3-(2,3-Dihydro-2-oxo-1H-imidazo[4,5-b]quinolin-7-yloxy)propyl]-1H-tetrazol-l-yl]-1-[(4-fluorophyl)methyl]piperidine dihydrochloride] | 0.019 | > 10000
6 | Oc1nc2cc3cc(OCCCc4nnnn4C4CCN(CC5CCCCC5)CC4)ccc3[nH]c-2n1 [Cmpd 12d, (Cyclohexylmethyl)-4-[5-[3-(2,3-dihydro-2-oxo-1H-imidazo[4,5-b]quinolin-7-yloxy)propyl]-1H-tetrazol-1-yl]piperidine dihydrochloride] | 0.009 | > 10000
7 | CCC(CC)CN1CCC(n2nnnc2CCCOc2ccc3nc4[nH]c(=O)[nH]c4cc3c2)CC1 [Cmpd 12e, [5-[3-(2, 3 -Dihydro-2-oxo-1H-imidazo [4,5-b]quinolin-7-yloxy)propyl]-1l H-tetrazol-1-yl]-1-(2-ethylbut-1-yl) piperidine dihydrochloride] | 0.007 | > 10000
8 | CC(C)CN1CCC(n2nnnc2CCCOc2ccc3nc4[nH]c(=O)[nH]c4cc3c2)CC1 [Cmpd 12f, [5-[3-(2,3-Dihydro-2-oxo-1H-imidazo[4,5-b]quinolin-7-yloxy)propyl]-1H-tetrazol-1-yl]-1-(2-methylprop-1-yl) piperidine dihydrochloride] | 0.005 | > 10000
9 | Oc1nc2cc3cc(OCCCc4nnnn4C4CCN(CCc5ccccc5)CC4)ccc3[nH]c-2n1 [Cmpd 12g, [5-[3-f 2,3-Dihydro-2-oxo-1H-imidazo[4,5-b]quinolin-7-yloxy)propyl]-1H-tetrazol-1-yl]-1-(2-phenylethyl) piperidine dihydrochloride] | 0.048 | < 5000
10 | Cl.Cl.O=c1[nH]c2cc3cc(OCCCc4nnnn4C4CCN(CC5CCCC5)CC4)ccc3nc2[nH]1 [Cmpd 12h, 1-Cyclopentylmethyl-4-[5-[3-(2,3-dihydro-2-oxo-1H-imidazo[4,5-b]quinolin-7-yloxy)propyl]-1H-tetrazol-1-yl]piperidine dihydrochloride] | 0.005 | 2000 to 3000
11 | Cl.Cl.O=c1[nH]c2cc3cc(OCCCc4nnnn4C4CCN(CC5CCCCCC5)CC4)ccc3nc2[nH]1 [Cmpd 12i, 1-Cycloheptylmethyl-4-[5-[3-(2,3-dihydro-2-oxo-1H-imidazo[4,5-b]quinolin-7-yl-oxy)propyl]-1H-tetrazol-1-yl]piperidine dihydrochloride] | 0.01 | ~1000
12 | CCCC(CCC)CN1CCC(n2nnnc2CCCOc2ccc3nc4[nH]c(=O)[nH]c4cc3c2)CC1 [Cmpd 12j, [5-[3-(2,3-Dihydro-2-oxo-1H-imidazo [4,5-b]quinolin-7-yloxy)propyl]-1H-tetrazol-1-yl]-1-(2-propylpent-1-yl) piperidine dihydrochloride] | 0.048 | ~2000
13 | Oc1nc2cc3cc(OCCCc4nnnn4C4CCN(CC5CCCCO5)CC4)ccc3[nH]c-2n1 (stereo not drawn) [Cmpd 12k, [5-[3-(2,3-Dihydro-2-oxo-1H-imidazo[4,5-b]quinolin-7-yloxy)propyl]-1H-tetrazol-1-yl]-1-[(terahydro-2H-pyran-2-yl)methyl]piperidine dihydrochloride] | 0.04 | > 10000
14 | Oc1nc2cc3cc(OCCCCc4nnnn4C4CCNCC4)ccc3[nH]c-2n1 [Cmpd 13a, dihydrochloride] | 2.6 | ~5000
15 | Oc1nc2cc3cc(OCCCCc4nnnn4C4CCN(Cc5ccccc5)CC4)ccc3[nH]c-2n1 [Cmpd 13b, dihydrochloride] | 0.018 | > 5000
16 | Oc1nc2cc3cc(OCCCCc4nnnn4C4CCN(Cc5ccc(F)cc5)CC4)ccc3[nH]c-2n1 [Cmpd 13c, dihydrochloride] | 0.031 | > 5000
17 | Oc1nc2cc3cc(OCCCCc4nnnn4C4CCN(CC5CCCCC5)CC4)ccc3[nH]c-2n1 [Cmpd 13d, dihydrochloride] | 0.012 | > 5000
18 | CCC(CC)CN1CCC(n2nnnc2CCCCOc2ccc3nc4[nH]c(=O)[nH]c4cc3c2)CC1 [Cmpd 13e, [5-[3-(2,3-Dihydro-2-oxo-1H-imidazo[4,5-b]quinolin-7-yloxy)butyl]-1H-tetrazol-1-yl]-1-(2-ethybut-1-yl) piperidine dihyudrochloride] | 0.0068 (≈ 0.0138 µM) | > 5000
19 | CC(C)CN1CCC(n2nnnc2CCCCOc2ccc3nc4[nH]c(=O)[nH]c4cc3c2)CC1 [Cmpd 13f, dihydrochloride] | 0.005 | > 10000
